How the values were obtained:
Assay in all cases: Potency at the sigma binding site was determined in radioligand
[1] = target: sigma receptor, [3H]DTG site (Cavia porcellus)
[2] = target: sigma receptor, [3H]-(+)-3-PPP site (Cavia porcellus)
[3] = target: sigma receptor, [3H]-(+)-3-PPP site (Cavia porcellus); remark: listed apart in the source

| Structure (SMILES) | IC50 [1] | IC50 [2] | IC50 [3] |
| --- | --- | --- | --- |
| CN(C)CCCCCCCOc1ccc2oc(-c3ccccc3)cc(=O)c2c1 | 165 nM | 188 nM |  |
| O=c1cc(-c2ccc(F)cc2)oc2ccc(OCCCCCCN3CCC(O)CC3)cc12 | 95 nM | 132 nM |  |
| CN(CCCCCCOc1ccc2oc(-c3ccccc3)cc(=O)c2c1)Cc1ccccc1 | 52 nM | 75 nM |  |
| O=c1cc(-c2ccccc2)oc2cccc(OCCCCCCCN3CCC(O)CC3)c12 | 36 nM |  | 65 nM |
| CC(C)Cc1cc(=O)c2cc(OCCCCCN3CCC(O)CC3)ccc2o1 | 139 nM | 261 nM |  |
| O=c1cc(-c2ccccc2Cl)oc2ccc(OCCCCCCN3CCC(O)CC3)cc12 | 47 nM |  | 29 nM |
| O=c1cc(-c2cccnc2)oc2ccc(OCCCCCCN3CCCCC3)cc12 | 119 nM | 192 nM |  |
| O=c1cc(-c2ccccc2)oc2cc(OCCCCCCN3CCC(O)CC3)ccc12 | 45 nM | 70 nM |  |
| COc1cccc(-c2cc(=O)c3cc(OCCCCCCN4CCC(O)CC4)ccc3o2)c1 | 76 nM | 111 nM |  |
| O=c1cc(-c2ccccc2)oc2ccc(OCCCCCCN3CCCCC3)cc12 | 101 nM | 54 nM |  |
| CN(C)CCCCCCCCCCOc1ccc2oc(-c3ccccc3)cc(=O)c2c1 | 297 nM | 341 nM |  |
| CCN(CC)CCCCCCOc1ccc2oc(-c3ccccc3)cc(=O)c2c1 | 91 nM |  | 100 nM |
| O=c1cc(-c2ccncc2)oc2ccc(OCCCCCCN3CCC(O)CC3)cc12 | 159 nM |  | 308 nM |
| CCOC(=O)C1CCN(CCCCCCOc2ccc3oc(-c4ccccc4)cc(=O)c3c2)CC1 | 164 nM | 102 nM |  |
| O=c1cc(-c2ccccc2)oc2cccc(OCCCCN3CCC(O)CC3)c12 | 58 nM |  |  |
| O=c1cc(-c2ccccc2)oc2ccc(OCCCCCCN3CCCC(O)C3)cc12 (stereo not given) | 86 nM | 77 nM |  |
| CN(C)CCCCOc1ccc2oc(-c3ccccc3)cc(=O)c2c1 | 720 nM | 400 nM |  |
| O=c1cc(-c2cccs2)oc2ccc(OCCCCCCN3CCC(O)CC3)cc12 | 119 nM |  | 232 nM |

| Structure (SMILES) | IC50 [1] | IC50 [2] | IC50 [3] |
| --- | --- | --- | --- |
| CN(C)CCCCCCOc1ccc2oc(-c3ccccc3)cc(=O)c2c1 | 432 nM |  | 335 nM |
| O=c1cc(-c2ccccc2)oc2ccc(OCCCCCCN3CCNCC3c3ncccn3)cc12 (stereo not given) |  | 14200 nM |  |
| O=c1cc(-c2ccc(Cl)cc2)oc2ccc(OCCCCCCN3CCC(O)CC3)cc12 | 195 nM | 164 nM |  |
| O=c1cc(-c2ccccc2)oc2cc(OCCCCCCCN3CCC(O)CC3)ccc12 | 16 nM |  | 19 nM |
| CN(C)CCCCCCCCCOc1ccc2oc(-c3ccccc3)cc(=O)c2c1 | 334 nM | 202 nM |  |
| COc1ccc(-c2cc(=O)c3cc(OCCCCCN4CCC(O)CC4)ccc3o2)cc1 | 493 nM | 600 nM |  |
| CN(C)CCOc1ccc2oc(-c3ccccc3)cc(=O)c2c1 | 590 nM | 40 nM |  |
| O=c1cc(C2CCCCC2)oc2ccc(OCCCCCCN3CCC(O)CC3)cc12 | 88 nM | 46 nM |  |
| O=c1cc(C2CCCC2)oc2ccc(OCCCCCCN3CCCCC3)cc12 | 26 nM | 38 nM |  |
| O=c1cc(-c2ccccc2)oc2ccc(OCCCN3CCC(O)CC3)cc12 | 130 nM | 123 nM |  |
| CN(C)CCCCCCCCOc1ccc2oc(-c3ccccc3)cc(=O)c2c1 | 227 nM | 143 nM |  |
| O=c1cc(-c2ccccc2)oc2cccc(OCCCN3CCC(O)CC3)c12 | 125 nM |  | 91 nM |
| O=c1cc(C2CCCC2)oc2ccc(OCCCCCCN3CCC(O)CC3)cc12 | 51 nM | 55 nM |  |
| O=c1cc(-c2cccnc2)oc2ccc(OCCCCCCN3CCC(O)CC3)cc12 | 194 nM | 210 nM |  |
| COc1ccc(-c2cc(=O)c3cc(OCCCCCCN4CCC(O)CC4)ccc3o2)cc1 | 254 nM | 332 nM |  |
| O=c1cc(C2CCCCC2)oc2ccc(OCCCCCCN3CCCCC3)cc12 | 55 nM | 32 nM |  |
| O=c1cc(-c2ccccc2)oc2ccc(OCCCCCCN3CCC(O)CC3)cc12 | 100 nM |  | 121 nM |
| O=c1cc(C2CCCCC2)oc2ccc(OCCCCCCN3CCOCC3)cc12 | 239 nM | 95 nM |  |
